Entries after “also recorded” stand apart in the source; their conditions may differ.
Assays:
HBL cells = assay: MTT viability assay; format: cell-based, human; details: 25 or 50 μM, 24 h
Description: The effect of the inhibitors on cell viability was evaluated by phase contrast microscopy and by means of the 3-(4,5-dimethyl-2-thiazolyl)-2,5-diphenyl-2H-tetrazolium bromide (MTT) assay. HBL cells were treated with the compounds (25 or 50 μM) for 24 h. At the end of the incubation period, phase contrast images were taken and the MTT assay was performed to test the cytotoxicity of each compound.
Figure 4 Effect of caffeic acid derivatives on the viability of HBL cells. Cells were incubated for 24 h with the inhibitors at 25 or 50 µM. (a) Phase contrast microscopy images. Representative images are shown (n = 8) Bar size: 50 μm. (b) MTT viability assay. Cells were grown in 96-well plates to ~80% confluence in the presence or absence of the indicated compounds. After 24 h, MTT was added (1 mg/mL final concentration) and maintained in the culture media for 4 h. Cells were PBS-washed twice and solubilized in DMSO. Absorbance at 562 nm was measured and represented as a percentage of the control value. The mean ± SEM of 8 independent experiments is shown. **** p < 0.0001.
Cell viability was measured by the MTT assay. HBL cells were seeded into the wells of a 96-wells plate at a density of 10,000 cells in 200 μL cell culture media. The seeded cells were incubated for 18 h at 37 °C, then treated with the compounds (25 or 50 μM) for 24 h or left untreated. At the end of the incubation period, images were taken and the MTT assay was performed to test the cytotoxicity of the different caffeic acid derivatives.

human tyrosinase = test system: T1, human tyrosinase; assay: TH activity of human tyrosinase; format: biochemical; details: compared with DO activity
T1 construct: endogenous in cells

tyrosinase = assay: Tyrosinase expression by Western blot (αPEP7), with or without NDP-MSH; format: cell-based, human
Description: Control HBL cells or cells grown in the presence of CAME (25 µM) or LCAME (25 or 50 µM) were stimulated for 48 h with a potent analogue of αMSH ([Nle^4,D-Phe^7]-α-MSH (NDP-MSH), 10^−7 M). Use of the 50 μM concentration of CAME was avoided since this concentration was somewhat cytotoxic as shown above. Expression of tyrosinase was then evaluated by Western blot using a specific antibody directed against tyrosinase (αPEP7). […] However, other mechanisms such as interference with activation and/or functional coupling of the melanocortin 1 receptor responsible for αMSH actions cannot be ruled out and a complete study of these possibilities is beyond the scope of this work. Accordingly, interference of LCAME with MITF expression or activity remains speculative at this stage. In any case, this preliminary observation deserves confirmation using cultured normal human melanocytes and further mechanistic analysis, as it may further support the potential use of LCAME as a skin depigmenting agent. Indeed, LCAME may act at two different levels, on one hand by inhibiting preexisting tyrosinase by a competitive mechanism, and on the other hand by interfering with αMSH-dependent induction of tyrosinase expression.
Figure 5 Effect on tyrosinase expression of CAME (25 µM) and LCAME (25 and 50 µM). HBL melanoma cells were incubated with or without the indicated compounds and stimulated with NDP-MSH (10^−7 M). After 48 h of treatment, tyrosinase levels were compared by Western blotting, performed as described in Materials and Methods. […] For each experimental condition, the fold-increase of tyrosinase abundance upon NDP-MSH treatment relative to the corresponding control was determined by densitometric analysis (ImageJ software) and is shown below the figure.
After protein separation by SDS-PAGE, they were transferred from the gel to the membrane and immunochemical detection with anti-PEP7 was performed as previously described. Briefly, the filters were blocked for 1 h in 2% bovine serum albumin in 1% Tween 20 PBS and incubated overnight at 4 °C with primary antibodies (1:4000 dilution). The filters were washed and further incubated with peroxidase-labeled mouse anti-rabbit IgG (1:5000 dilution). Staining and detection were done with ECL Plus Western Blotting Detection System chemiluminescent substrate (Thermo Fisher Scientific, Waltham, MA, USA). Images were acquired in a Fusion Solo.6S system (Vilber-Lourmat, Marne La Vallée, France). Signal intensities were estimated with ImageJ (National Institutes of Health, Bethesda, […], USA) in independent blots, and normalized with the corresponding loading controls (obtained by staining the membranes with an anti-ERK2 antibody).

mushroom tyrosinase = assay: Consumption of inhibitor by mushroom tyrosinase (substrate test, HPLC); format: biochemical; details: 100 μM, 10 min
Description: Some tyrosinase inhibitors are also substrates of the enzyme and this is a critical issue because their oxidation can lead to the formation of highly reactive, cytotoxic o-quinones. To rule out this possibility, either LCAME or CAME at 100 μM were exposed to mushroom tyrosinase, in the absence of L-DOPA, and after 10 min, the reaction mixtures were analyzed by HPLC. […] HPLC analyses for determination of the consumption of CAME and LCAME in the presence of mushroom tyrosinase were performed on a Agilent 1100 binary pump instrument equipped with a UV-visible detector using an octadecylsilane-coated column, 250 mm × 4.6 mm, 5 μm particle size (Phenomenex Sphereclone ODS, Bologna, Italy) at 0.7 mL/min, using the following gradient: 0.1% formic acid (eluant a)/ methanol (eluant b): 40% b, 0–10 min; from 40 to 80% b, 47.5–52.5 min; from 80 to 40% b, 52.5–57.5 min. Detection wavelength was set at 280 nm. Stock methanolic solutions of LCAME or CAME, ranging in concentration from 0.02 to 20 mM concentration were prepared dissolving a proper amount of the compound of interest in methanol. 100 μL of these solutions were added to 2 mL of 50 mM phosphate buffer at pH 6.8 (final concentrations range: 0.001–1 mM), in the presence or in the absence of 20 U/mL mushroom tyrosinase. After 10 min incubation at room temperature, 20 μL of a 100 mM solution of L-DOPA or L-tyrosine in 0.6 M HCl, were added (final concentration: 1 mM). Spectrophotometric analysis was performed by measuring the absorbance at 475 nm for 10 min at 2 min intervals. In control experiments, the reaction was run in the absence of LCAME. When required, the experiment was performed as above but adding L-DOP A soon after the addition of LCAME ([…]). In separate experiments, the assay was run as above with LCAME or CAME at 100 μM, in the presence or absence of L-DOPA, and after 10 min the mixture was analyzed by HPLC.

COC(=O)/C=C/c1ccc(O)c(O)c1SCCC(S)CCCCC(=O)O (stereo not drawn) [LCAME, 2-S-lipoylcaffeic acid methyl ester]
cytotoxicity (MTT) (HBL cells): nontoxic; also recorded: not cytotoxic | effect on TH activity of human tyrosinase (human tyrosinase): weaker; also recorded: much smaller | NDP-MSH-mediated stimulation of tyrosinase expression (tyrosinase; 25 or 50 µM, NDP-MSH 10^−7 M, 48 h): apparently blocked | basal tyrosinase expression (tyrosinase; HBL cells, CAME 25 µM or LCAME 25 or 50 µM, Western blot): No alteration; also recorded: No significant changes | consumption of the inhibitor (mushroom tyrosinase; absence of L-DOPA): no significant consumption | consumption of the inhibitor (mushroom tyrosinase; presence of L-DOPA): The same result
